This assay concerns anti-MAG IgM antibodies. In words: Competitive binding assay (modified anti-MAG ELISA): compounds compete with immobilized MAG for anti-MAG IgM antibodies of patient sera. Further details: species or system human. On the procedure:
FIG. 1. Schematic representation of a competitive binding assay • (a) Incubation of MAG-coated plates with anti-MAG IgM (patient sera) and polymer 25. (b) Wash step. (c) Incubation with anti-human IgM antibody coupled to horseradish peroxidase. (d) Wash step. (e) Addition of tetramethylbenzidin (TMB) substrate. (f) Addition of acidic stop solution and measurement of the optical density.
The synthesized carbohydrate monomers (1 and 2) and the polymer 25 were tested in an established ELISA assay (Bühlmann Laboratories, Schonenbuch, Switzerland) applied for the diagnosis of anti-MAG neuropathy and for therapy control in clinic. The assay is used to determine serum concentration of anti-MAG IgM autoantibodies. The assay was modified to a competitive binding assay. The synthesized compounds and serum samples containing anti-MAG IgM antibodies are given into 96 well plates, coated with purified MAG from human brain. Immobilized MAG and the synthesized compounds compete for binding to the anti-MAG IgM antibodies. After a washing step MAG-bound IgM antibodies are detected with a horseradish peroxidase labeled antibody, followed by a colorimetric reaction. Successful competition of the compounds with MAG leads to a decrease in measured OD450 nm (optical density), because they block the binding sites of IgM antibodies, preventing them from binding to MAG. The principle of the assay is depicted in FIG. 1. For the evaluation of the compounds, four sera from different patients ([…]) with reported high anti-MAG IgM antibody titers were chosen. IgM antibody concentrations were determined for each serum in preliminary experiments. Serum dilutions with measured OD450 nm values around 1.0 were chosen for the assay, to be able to compare the measured IC50 values (half maximal inhibitory concentration) which are antibody concentration dependent. Serum dilutions: DP 1:2′500, KH 1:3,000, SJ 1:7,500, MK 1:23,000.
IC50 values of compound 1 were determined for all sera. Those of compound 2 were determined for serum MK with the highest antibody affinity for 1 and for serum SJ with the lowest antibody affinity for 1. The assay was repeated four times. From the received binding curves for each serum, the three best fitted were chosen and normalized for IC50 calculation. For curve generation of compound 2 an artificially high concentration point at 500 mM with 0% antibody binding was added because even at the highest concentration of 2 (50 mM) the inhibition of antibody binding was not 100%. The IC50 values for compound 2 are therefore to be considered as approximated values, although they changed only marginally upon addition of the high concentration point. Under the same assay conditions the carbohydrate polymer was tested with the sera KH, MK and SJ. The measurements were repeated at least three times. The three best fitted curves for each serum were chosen for IC50 calculation.
Sera of four patients (three men and one […]) were investigated. They all were tested positive for a monoclonal IgM gammopathy and were diagnosed with anti-MAG neuropathy at the University Hospital of Basel (Basel, Switzerland). Serum anti-MAG antibody titers were determined by an ELISA assay (Bühlmann Laboratories, Schonenbuch, Switzerland). Sera from two patients with a monoclonal IgM gammopathy and negative anti-MAG activity served as control. Use of sera was approved by the ethics committee of the University Hospital of Basel.
An anti-MAG ELISA kit (Bühlmann Laboratories, Schonenbuch, Switzerland) was used for the biological evaluation of compounds 1, 2 and 25. The 96 well plates coated with purified MAG from human brain were washed four times with washing buffer (300 μl/well) before adding the carbohydrate ligands in seven different concentrations (0.05-50 mM for the monomers 1 and 2 and 0.05-5,000 nM for the polymer 25), 25 μl/well. The patient sera containing anti-MAG IgM antibodies were added in the appropriate dilutions, 25 μl/well. […]

Consider `COc1ccc(OC2OC(CO)C(O)C(OC3OC(C(=O)O)C(O)C(O)C3O)C2O)cc1` [Compound 2, 4-Methoxyphenyl (Sodium β-D-Glucopyranuronate)-(1→3)-β-D-Galactopyranoside], for which the “inhibition of antibody binding” value (highest concentration, 50 mM) is reported as under 100%. For the same molecule, the “weaker binding to the unsulfated disaccharide (versus sulfated disaccharide 1)” value (patient serum MK) is given as “approximately 230 fold”. Moreover, the half-inhibitory concentration (IC50) is, setting by setting: (patient serum MK, approximated value, artificial point at 500 mM with 0% antibody binding added for curve fit) 29000 ± 500 µM; (patient serum SJ, approximated value, artificial point at 500 mM with 0% antibody binding added for curve fit) 10000 ± 1000 µM. Further, where the note is “patient serum SJ”, the “lower binding affinity to the unsulfated disaccharide (versus sulfated disaccharide 1)” value is reported as 12.6 fold.

In the case of `COc1ccc(OC2OC(CO)C(O)C(OC3OC(C(=O)O)C(O)C(OS(=O)(=O)O)C3O)C2O)cc1` [Compound 1, 4-Methoxyphenyl (Disodium-3-O-Sulfo-β-D-Glucopyranuronate)-(1→3)-β-D-Galacto-Pyranoside], the IC50 amounted to 536 ± 23.5 µM (patient serum DP (dilution 1:2′500), MAG-coated plates); 614 ± 20.1 µM (patient serum KH (dilution 1:3,000), MAG-coated plates); 124 ± 9.5 µM (patient serum MK (dilution 1:23,000), MAG-coated plates); 793 ± 24 µM (patient serum SJ (dilution 1:7,500), MAG-coated plates).

For the origin of these results see patent publication US11220523B2, “Carbohydrate ligands that bind to IgM antibodies against myelin-associated glycoprotein” (UNIVERSITÄT BASEL, priority 2014, dated 2022).
